Here are results for 18 compounds from US9999622B2, “Pyrazolothiazole compound and medicine comprising same” (NIPPON SHINYAKU CO., LTD., priority 2014, dated 2018).

Where a name gives a salt, the structure may show the parent alone. Some results are limits rather than exact numbers.

Holding throughout (format): biochemical
One assay has as its target T1, JAK2 (Homo sapiens, UniProt O60674).
T1 construct: purchased Carna Biosciences, Inc
As to the kind of experiment: JAK tyrosine kinase inhibitory activity in the presence of 1 mM ATP (ELISA), JAK2. Summed up:
(§1)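 ELISA read-out: HRP-labelled anti-phosphotyrosine antibody with TMB, absorbance 450 nm, after 1 h kinase reaction at 30 °C in presence of 1 mM ATP. Kinase diluted to 7.5 nM (JAK1) or 0.75 nM (JAK2/JAK3) in Tris-HCl pH 7.5 buffer with DTT; compounds tested in duplicate.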
On the technique in general: ELISA stands for enzyme-linked immunosorbent assay.

The target of another assay is T2, JAK3 (Homo sapiens, UniProt P52333).
T2 construct: purchased Carna Biosciences, Inc
T2 sequence (P52333 1-1124): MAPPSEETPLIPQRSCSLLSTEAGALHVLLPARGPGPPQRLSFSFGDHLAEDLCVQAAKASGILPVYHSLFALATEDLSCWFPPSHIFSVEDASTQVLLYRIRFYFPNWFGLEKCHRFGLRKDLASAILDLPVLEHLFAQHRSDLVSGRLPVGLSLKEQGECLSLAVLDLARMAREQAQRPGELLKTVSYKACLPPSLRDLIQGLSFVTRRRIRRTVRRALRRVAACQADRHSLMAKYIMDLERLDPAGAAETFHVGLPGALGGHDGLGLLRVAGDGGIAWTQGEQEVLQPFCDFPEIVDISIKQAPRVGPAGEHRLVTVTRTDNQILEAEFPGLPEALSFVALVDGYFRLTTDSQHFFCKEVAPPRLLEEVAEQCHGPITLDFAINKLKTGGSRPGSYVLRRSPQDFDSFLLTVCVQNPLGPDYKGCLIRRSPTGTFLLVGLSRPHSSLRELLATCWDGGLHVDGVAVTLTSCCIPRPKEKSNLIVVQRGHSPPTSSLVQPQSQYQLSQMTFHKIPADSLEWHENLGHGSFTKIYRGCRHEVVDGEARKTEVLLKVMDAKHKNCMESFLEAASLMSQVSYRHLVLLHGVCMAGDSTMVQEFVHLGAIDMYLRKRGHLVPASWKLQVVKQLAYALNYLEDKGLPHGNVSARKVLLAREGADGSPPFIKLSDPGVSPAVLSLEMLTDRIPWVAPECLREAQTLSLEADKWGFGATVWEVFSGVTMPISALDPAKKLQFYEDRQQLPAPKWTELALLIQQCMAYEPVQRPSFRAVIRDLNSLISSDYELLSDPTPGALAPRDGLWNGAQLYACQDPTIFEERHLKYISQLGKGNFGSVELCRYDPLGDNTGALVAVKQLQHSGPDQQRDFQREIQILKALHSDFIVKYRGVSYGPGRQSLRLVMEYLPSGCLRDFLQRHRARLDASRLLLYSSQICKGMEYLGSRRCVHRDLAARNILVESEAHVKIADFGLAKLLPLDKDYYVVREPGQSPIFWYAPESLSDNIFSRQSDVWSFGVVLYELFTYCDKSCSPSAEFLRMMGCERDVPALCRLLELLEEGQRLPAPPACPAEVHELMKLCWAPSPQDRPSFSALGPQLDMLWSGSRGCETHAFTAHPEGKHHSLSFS
As to the kind of experiment: JAK tyrosine kinase inhibitory activity in the presence of 1 mM ATP (ELISA), JAK3. The method in brief:
as §1

Another assay has as its target T3, JAK1 (Homo sapiens, UniProt P23458).
T3 construct: purchased Carna Biosciences, Inc
Kind of assay: JAK tyrosine kinase inhibitory activity in the presence of 1 mM ATP (ELISA), JAK1. The method in brief: as §1

T1 sequence (O60674 whole entry): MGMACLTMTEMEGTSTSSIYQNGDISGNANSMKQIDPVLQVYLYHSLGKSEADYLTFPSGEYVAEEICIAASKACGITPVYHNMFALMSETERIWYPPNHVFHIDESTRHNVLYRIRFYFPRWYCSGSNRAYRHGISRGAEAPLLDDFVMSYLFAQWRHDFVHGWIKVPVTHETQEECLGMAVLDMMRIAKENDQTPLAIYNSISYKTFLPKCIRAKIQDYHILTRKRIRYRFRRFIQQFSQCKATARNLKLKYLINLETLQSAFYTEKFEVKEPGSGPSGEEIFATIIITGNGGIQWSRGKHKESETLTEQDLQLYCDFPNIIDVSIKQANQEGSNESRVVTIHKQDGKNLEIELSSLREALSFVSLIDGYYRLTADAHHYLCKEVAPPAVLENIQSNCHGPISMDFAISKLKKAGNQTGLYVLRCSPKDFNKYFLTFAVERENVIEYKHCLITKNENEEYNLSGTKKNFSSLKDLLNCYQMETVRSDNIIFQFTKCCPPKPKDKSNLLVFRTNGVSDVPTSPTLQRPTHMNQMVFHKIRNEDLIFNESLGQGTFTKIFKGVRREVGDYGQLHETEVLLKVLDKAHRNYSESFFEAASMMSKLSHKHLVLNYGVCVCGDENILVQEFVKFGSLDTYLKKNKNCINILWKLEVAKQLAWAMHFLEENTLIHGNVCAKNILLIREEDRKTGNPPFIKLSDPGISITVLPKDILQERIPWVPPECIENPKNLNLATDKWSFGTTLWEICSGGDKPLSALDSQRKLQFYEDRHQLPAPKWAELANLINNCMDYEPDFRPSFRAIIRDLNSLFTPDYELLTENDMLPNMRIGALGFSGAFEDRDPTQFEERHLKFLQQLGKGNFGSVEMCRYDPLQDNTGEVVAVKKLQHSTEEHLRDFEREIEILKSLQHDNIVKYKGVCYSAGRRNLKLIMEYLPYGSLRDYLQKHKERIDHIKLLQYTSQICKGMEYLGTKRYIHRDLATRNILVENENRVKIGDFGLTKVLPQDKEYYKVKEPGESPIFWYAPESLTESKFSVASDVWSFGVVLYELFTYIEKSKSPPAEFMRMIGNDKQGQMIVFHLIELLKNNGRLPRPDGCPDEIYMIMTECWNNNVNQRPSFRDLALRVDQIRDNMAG
T3 sequence (P23458 whole entry): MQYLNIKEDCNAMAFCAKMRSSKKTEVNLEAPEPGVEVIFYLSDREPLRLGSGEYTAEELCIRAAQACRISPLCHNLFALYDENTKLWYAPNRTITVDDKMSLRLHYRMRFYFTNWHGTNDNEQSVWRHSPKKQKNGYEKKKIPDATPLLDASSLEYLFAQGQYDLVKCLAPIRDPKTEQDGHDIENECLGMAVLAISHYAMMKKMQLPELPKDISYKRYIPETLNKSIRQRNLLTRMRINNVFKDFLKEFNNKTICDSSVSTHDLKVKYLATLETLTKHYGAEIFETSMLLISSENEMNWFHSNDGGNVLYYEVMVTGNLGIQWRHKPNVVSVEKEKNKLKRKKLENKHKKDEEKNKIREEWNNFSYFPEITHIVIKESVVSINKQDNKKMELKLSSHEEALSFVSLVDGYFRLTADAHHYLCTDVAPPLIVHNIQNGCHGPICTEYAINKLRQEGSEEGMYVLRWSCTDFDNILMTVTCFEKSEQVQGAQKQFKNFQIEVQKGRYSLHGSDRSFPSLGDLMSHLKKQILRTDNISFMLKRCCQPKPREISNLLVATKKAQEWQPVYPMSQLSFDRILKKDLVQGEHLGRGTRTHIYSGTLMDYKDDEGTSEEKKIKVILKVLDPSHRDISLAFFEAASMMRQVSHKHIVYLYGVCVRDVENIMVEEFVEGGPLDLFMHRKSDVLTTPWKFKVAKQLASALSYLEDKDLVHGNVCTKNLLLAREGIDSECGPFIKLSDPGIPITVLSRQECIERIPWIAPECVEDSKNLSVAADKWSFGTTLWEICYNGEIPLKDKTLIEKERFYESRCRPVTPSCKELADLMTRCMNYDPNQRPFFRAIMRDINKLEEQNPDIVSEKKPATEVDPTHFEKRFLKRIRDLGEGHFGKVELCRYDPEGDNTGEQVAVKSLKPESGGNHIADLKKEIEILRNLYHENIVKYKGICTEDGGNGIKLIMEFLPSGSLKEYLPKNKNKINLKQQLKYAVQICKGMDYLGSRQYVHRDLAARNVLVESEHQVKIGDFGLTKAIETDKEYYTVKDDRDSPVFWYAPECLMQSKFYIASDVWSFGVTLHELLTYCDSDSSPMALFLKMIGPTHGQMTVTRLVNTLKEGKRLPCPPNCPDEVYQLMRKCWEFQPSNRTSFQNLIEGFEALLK

As usually defined, the IC50 is the concentration that gives 50% inhibition. On to `COC(=O)NC1CCN(C(=O)c2cc(NC3(C#N)CC3)nc(-c3cnn4ccsc34)n2)CC1` [Example 144, Methyl [1-({6-[(1-cyanocyclopropyl)amino]-2-(pyrazolo[5,1-b][1,3]thiazol-7-yl)pyrimidin-4-yl}carbonyl)piperidin-4-yl]carbamate], for which the IC50 at JAK2 was more than 10000 nM; at JAK3, 6600 nM; on JAK1, 480 nM.

With `CC(C)(C)Nc1cc(C(=O)N2CCC(NC(=O)OC3CC3)CC2)nc(-c2cnn3ccsc23)n1` [Example 135, Cyclopropyl (1-{[6-(tert-butylamino)-2-(pyrazolo[5,1-b][1,3]thiazol-7-yl)pyrimidin-4-yl]carbonyl}piperidin-4-yl)carbamate], the IC50 at JAK2 worked out at 2400 nM; on JAK3, 3700 nM; on JAK1, 68 nM.

In the case of `CCC(C)(C)Nc1cc(C(=O)N2CCC(NC(=O)OC)CC2)nc(-c2cnn3ccsc23)n1` [Example 80, Methyl [1-({6-[(2-methylbutan-2-yl)amino]-2-(pyrazolo[5,1-b][1,3]thiazol-7-yl)pyrimidin-4-yl}carbonyl)piperidin-4-yl]carbamate], the results for the IC50 at JAK2, on JAK3 and at JAK1 were 820 nM, 2300 nM and 110 nM, respectively.

Take `COc1ccc([C@@H](C)Nc2cc(C(=O)N3CCC(O)CC3)nc(-c3cnn4ccsc34)n2)cc1` [Example 56, (4-Hydroxypiperidin-1-yl) [6-{[(1R)-1-(4-methoxyphenyl)ethyl]amino}-2-(pyrazolo[5,1-b][1,3]thiazol-7-yl)pyrimidin-4-yl]methanone]: the values for the IC50 on JAK2, on JAK3 and at JAK1 were 7300 nM, more than 10000 nM and 940 nM, respectively.

Take `COC(=O)NC1CCN(C(=O)c2cc(OCC3CN(C(=O)OC(C)(C)C)C3)nc(-c3cnn4ccsc34)n2)CC1` [Example 164, Tert-butyl 3-([6-4-[(methoxycarbonyl)amino]piperidine-1-carbonyl-2-(pyrazolo[5,1-b][1,3]thiazol-7-yl)pyrimidin-4-yl]oxymethyl)azetidine-1-carboxylate]: the IC50 on JAK2 is more than 10000 nM; on JAK3, more than 10000 nM; at JAK1, 2600 nM.

Regarding `COC(=O)NC1CCN(C(=O)c2cc(NC3CCN(S(C)(=O)=O)CC3)nc(-c3cnn4ccsc34)n2)CC1` [Example 200, Methyl 1-[6-[1-(methanesulfonyl)piperidin-4-yl]amino-2-(pyrazolo[5,1-b][1,3]thiazol-7-yl)pyrimidine-4-carbonyl]piperidin-4-ylcarbamate], the results for the IC50 at JAK2, on JAK3 and on JAK1 were more than 10000 nM, more than 10000 nM and 2400 nM, respectively.

For the compound `C[C@H](Nc1cc(C(=O)N2CCC(NC(=O)NC3CC3)CC2)nc(-c2cnn3ccsc23)n1)C1CC1` [Example 34, 1-Cyclopropyl-3-(1-{[6-{[(1S)-1-cyclopropylethyl]amino}-2-(pyrazolo[5,1-b][1,3]thiazol-7-yl)pyrimidin-4-yl]carbonyl}piperidin-4-yl)urea], the IC50 at JAK2 turned out to be 1900 nM; at JAK3, 3000 nM; on JAK1, 350 nM.

Consider `COC(=O)NC1CCN(C(=O)c2cc(NC3CCCCC3)nc(-c3cnn4ccsc34)n2)CC1` [Example 180, Methyl 1-[6-(cyclohexylamino)-2-(pyrazolo[5,1-b][1,3]thiazol-7-yl)pyrimidine-4-carbonyl]piperidin-4-ylcarbamate], for which the IC50 is more than 10000 nM on JAK2, more than 10000 nM on JAK3 and 560 nM at JAK1.

`CCOc1c(N[C@H](C)C(C)(C)C)nc(-c2cnn3ccsc23)nc1C(=O)N1CCC(NC(=O)OC)CC1` [Example 155, Methyl (1-{[6-{[(2R)-3,3-dimethylbutan-2-yl]amino}-5-ethoxy-2-(pyrazolo[5,1 b][1,3]thiazol 7-yl)pyrimidin-4-yl]carbonyl}piperidin-4-yl)carbamate]: the IC50 on JAK2 stood at 4600 nM; at JAK3 it was 1400 nM; on JAK1, 24 nM.

Consider `N#CCC(=O)N1CC[C@H](Nc2cc(C(=O)N3CCC(NC(=O)C4CC4)CC3)nc(-c3cnn4ccsc34)n2)C1` [Example 204, N-1-[6-[(3S)-1-(cyanoacetyl)pyrrolidin-3-yl]amino-2-(pyrazolo[5,1-b][1,3]thiazol-7-yl)pyrimidine-4-carbonyl]piperidin-4-ylcyclopropanecarboxamide], for which the IC50 on JAK2 is more than 10000 nM; at JAK3, more than 10000 nM; on JAK1, 2700 nM.

As for `CC[C@H](C)Nc1nc(-c2cnn3ccsc23)nc(C(=O)N2CCC(NC(=O)OC)CC2)c1OC` [Example 153, Methyl [1-({6-[(2S)-butan-2-ylamino]-5-methoxy-2-(pyrazolo[5,1-b][1,3]thiazol-7-yl)pyrimidin 4 yl}carbonyl)piperidin-4-yl]carbamate], the IC50 at JAK2 was determined as 7200 nM; on JAK3 it was 9000 nM; on JAK1 it was 210 nM.

For the compound `C[C@H](Nc1cc(C(=O)N2CCC(NC(=O)c3ccncc3)CC2)nc(-c2cnn3ccsc23)n1)C1CC1` [Example 187, N-1-[6-[(1S)-1-cyclopropylethyl]amino-2-(pyrazolo[5,1-b][1,3]thiazol-7-yl)pyrimidine-4-carbonyl]piperidin-4-ylpyridine-4-carboxamide], the IC50 worked out at 2100 nM at JAK2, 1800 nM at JAK3 and 68 nM on JAK1.

As to `COC(=O)NC1CCN(C(=O)c2cc(NC3CCNCC3)nc(-c3cnn4ccsc34)n2)CC1` [Example 143, Methyl (1-{[6-(piperidin-4-ylamino)-2-(pyrazolo[5,1-b][1,3]thiazol-7-yl)pyrimidin-4-yl]carbonyl}piperidin-4 yl)carbamate dihydrochloride], the results for the IC50 at JAK2, at JAK3 and on JAK1 were more than 10000 nM, more than 10000 nM and 1900 nM, respectively.

For `COC(=O)NC1CCN(C(=O)c2cc(N[C@@H]3CCN(C(=O)CC#N)C3)nc(-c3cnn4ccsc34)n2)CC1` [Example 201, Methyl 1-[6-[(3R)-1-(cyanoacetyl)pyrrolidin-3-yl]amino-2-(pyrazolo[5,1-b][1,3]thiazol-7-yl)pyrimidine-4-carbonyl]piperidin-4-ylcarbamate], the results for the IC50 on JAK2, at JAK3 and at JAK1 were more than 10000 nM, more than 10000 nM and 120 nM, respectively.

Turning to `Cc1c(N[C@@H](C)C2CC2)nc(-c2cnn3ccsc23)nc1C(=O)N1CCC(NC(=O)C2CC2)CC1` [Example 12, N-(1-{[6-{[(1S)-1-Cyclopropylethyl]amino}-5-methyl-2-(pyrazolo[5,1-b][1,3]thiazol-7-yl)pyrimidin-4-yl]carbonyl}piperidin-4-yl)cyclopropanecarboxamide], the IC50 at JAK2 is 2200 nM; at JAK3 it was 1800 nM; at JAK1 it was 120 nM.

For `CCC(=O)NC1CCN(C(=O)c2cc(N[C@@H](C)CC)nc(-c3cnn4ccsc34)n2)CC1` [Example 131, N-[1-({6-[(2S)-Butan-2-ylamino]-2-(pyrazolo[5,1-b][1,3]thiazol-7-yl)pyrimidin-4-yl}carbonyl)piperidin-4-yl]propanamide], the IC50 at JAK2 came to 2200 nM; on JAK3 it was 4700 nM; on JAK1, 310 nM.

As to `COC(=O)NC1CCN(C(=O)c2nc(-c3cnn4ccsc34)nc(N[C@H](C)C(C)(C)C)c2OC)CC1` [Example 146, Methyl (1-{[6-{[(2R)-3,3-dimethylbutan-2-yl]amino}-5-methoxy-2-(pyrazolo[5,1-b][1,3]thiazol-7-yl)pyrimidin-4-yl]carbonyl}piperidin-4-yl)carbamate], the results for the IC50 on JAK2, at JAK3 and at JAK1 were 1600 nM, 1400 nM and 270 nM, respectively.

Take `CCC(CC)CNc1cc(C(=O)N2CCC(NC(=O)C3CC3)CC2)nc(-c2cnn3ccsc23)n1` [Example 110, N-[1-({6-[(2-Ethylbutyl)amino]-2-(pyrazolo[5,1-b][1,3]thiazol-7-yl)pyrimidin-4-yl}carbonyl)piperidin-4-yl]cyclopropanecarboxamide]: the IC50 is 880 nM on JAK2, more than 10000 nM on JAK3 and 78 nM on JAK1.
